# Reference: US20070173529A1, “Sulfated bis-cyclic agents” (priority 2003, published 2007)
# Experiments:
# [1] = tested on: T1, human plasma factor Xa (Homo sapiens); assay: Antithrombin-dependent factor Xa inhibition (residual factor Xa activity, Spectrozyme fXa substrate); assay type: biochemical; settings: 10 μM sulfated compound; 1 μM human plasma antithrombin, 10 nM human plasma factor Xa, pH 6.0, 25° C., 10 min
# T1 construct: 10 nM human plasma factor Xa; from tissue; host or cells: human plasma
# Method: (§1) Methods. To assay anticoagulant activity, compounds were incubated with 1 μM human plasma antithrombin and 10 nM human plasma factor Xa in 20 mM sodium phosphate buffer, pH 6.0, at 25° C. for 10 min. After incubation, residual factor Xa activity was measured spectrophotometrically using Spectrozyme fXa substrate. From the decrease in residual factor Xa activity as a function of sulfated bis-cyclic agent concentration, the anticoagulant potential of each sample was calculated.
# (§2) A key test of in vitro anticoagulant activity is the inhibition of Factor Xa., a critical enzyme involved in blood clotting.
# (§3) Each peak was isolated and its factor Xa inhibition potential was determined at concentrations in the range of 1-50 μM.
# human plasma factor Xa = target: T2, human plasma factor Xa (Homo sapiens, UniProt P01008); assay: as above; assay type: biochemical; settings: tested at 1-50 μM
# T2 construct: 10 nM human plasma factor Xa; from tissue; host or cells: human plasma
# Method: as §1, §2, §3
# T1 sequence (P01008 33-464): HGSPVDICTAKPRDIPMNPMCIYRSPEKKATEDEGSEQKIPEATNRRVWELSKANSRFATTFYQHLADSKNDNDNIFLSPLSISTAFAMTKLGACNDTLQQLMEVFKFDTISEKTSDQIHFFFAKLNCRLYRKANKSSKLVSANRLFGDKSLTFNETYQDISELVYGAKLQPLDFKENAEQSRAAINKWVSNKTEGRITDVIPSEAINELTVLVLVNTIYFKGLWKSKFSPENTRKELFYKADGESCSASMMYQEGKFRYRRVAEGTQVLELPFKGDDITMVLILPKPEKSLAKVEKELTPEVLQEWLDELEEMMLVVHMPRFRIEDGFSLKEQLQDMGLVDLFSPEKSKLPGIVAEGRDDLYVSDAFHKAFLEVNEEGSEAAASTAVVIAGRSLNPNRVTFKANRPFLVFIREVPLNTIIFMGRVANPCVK
# T2 sequence (P01008 33-464): as above
substance,measurement,setting,value
"(3S)-6,7-bis-sulfonato-2-(3,4,5-tris-sulfonato-benzoyl)-1,2,3,4-tetrahydro-isoquinoline-3-carboxylate [Peak P1]",Inhibition (Factor Xa inhibition by sulfated compounds),[1],86%
same,acceleration of the inhibition of human factor Xa by human plasma antithrombin,human plasma factor Xa,greatly accelerates the inhibition
